From ChEMBL document CHEMBL1201862, “PubChem BioAssay data set” (2004)
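Test compounds were applied to cells in 96-well plates for 48 hours at 5 doses. At the GI50, growth is halved.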 The source made the active and inactive calls. No stated cut-off is given here; in the data, active = GI50 up to about 1.1 µM and inactive = higher.

Assays:
Assay in all cases: DTP human tumour cell line panel, 48 h
BT-549 = tested on: BT-549
HT-29 = tested on: HT-29
MCF7 = tested on: MCF7
MDA-N = tested on: MDA-N
DU-145 = tested on: DU-145
LOX IMVI = tested on: LOX IMVI
SR = tested on: SR
UACC-62 = tested on: UACC-62
MDA-MB-231 = tested on: MDA-MB-231
HL-60 = tested on: HL-60
MOLT-4 = tested on: MOLT-4
UACC-257 = tested on: UACC-257
HOP-92 = tested on: HOP-92
SK-OV-3 = tested on: SK-OV-3
HOP-62 = tested on: HOP-62
RPMI-8226 = tested on: RPMI-8226
NCI-H23 = tested on: NCI-H23
NCI-H460 = tested on: NCI-H460
SNB-75 = tested on: SNB-75

Measured: GI50

Nc1nc(N)c2nc(CNc3ccc(C(=O)O)cc3)[nH]c2n1
inactive: BT-549 > 100 µM | HT-29 > 100 µM | MCF7 > 100 µM | MDA-N > 100 µM | DU-145 > 100 µM | LOX IMVI > 100 µM | SR > 100 µM | UACC-62 > 100 µM | MDA-MB-231 > 100 µM | HL-60 > 100 µM | MOLT-4 > 100 µM | UACC-257 > 100 µM | HOP-92 > 100 µM | SK-OV-3 > 100 µM | HOP-62 > 100 µM | RPMI-8226 > 100 µM | NCI-H23 > 100 µM | NCI-H460 > 100 µM | SNB-75 > 100 µM

NCc1nnn(Cc2ccccc2)c1N
inactive: BT-549 > 100 µM | HT-29 > 100 µM | MCF7 > 100 µM | MDA-N > 100 µM | DU-145 > 100 µM | LOX IMVI > 100 µM | SR > 100 µM | UACC-62 > 100 µM | MDA-MB-231 > 100 µM | HL-60 > 100 µM | MOLT-4 > 100 µM | UACC-257 > 100 µM | HOP-92 > 100 µM | SK-OV-3 > 100 µM | HOP-62 > 100 µM | RPMI-8226 > 100 µM | NCI-H23 > 100 µM | NCI-H460 > 100 µM | SNB-75 > 100 µM

COc1ccc2c(CCNS(=O)(=O)c3ccccc3)c(C(C)=O)[nH]c2c1
inactive: BT-549 33.8 µM | HT-29 > 46.8 µM | MCF7 51.4 µM | MDA-N > 71.3 µM | DU-145 > 80.2 µM | LOX IMVI > 68.2 µM | SR 64.6 µM | UACC-62 > 58.5 µM | MDA-MB-231 > 85.5 µM | HL-60 > 75.3 µM | MOLT-4 48.8 µM | UACC-257 > 32.4 µM | HOP-92 > 100 µM | SK-OV-3 > 80.9 µM | HOP-62 > 50.6 µM | RPMI-8226 > 100 µM | NCI-H23 8.3 µM | NCI-H460 > 100 µM | SNB-75 52.8 µM

COc1ccc2c(c1)C(N)=C(c1ccccc1)C2=O
inactive: BT-549 > 100 µM | HT-29 > 100 µM | MCF7 > 100 µM | MDA-N > 100 µM | DU-145 > 100 µM | LOX IMVI > 100 µM | SR 8.75 µM | UACC-62 > 100 µM | MDA-MB-231 51.3 µM | HL-60 > 100 µM | MOLT-4 58.5 µM | UACC-257 > 100 µM | HOP-92 > 100 µM | SK-OV-3 49 µM | HOP-62 > 100 µM | RPMI-8226 96.4 µM | NCI-H23 38.8 µM | NCI-H460 > 100 µM | SNB-75 12.6 µM

CCOC(=O)c1c(Br)c(-c2ccc([N+](=O)[O-])cc2)c(Br)n1C
inactive: BT-549 > 10 µM | HT-29 > 10 µM | MCF7 > 10 µM | MDA-N > 10 µM | DU-145 > 10 µM | LOX IMVI > 10 µM | SR > 10 µM | UACC-62 7.28 µM | MDA-MB-231 > 10 µM | HL-60 > 10 µM | MOLT-4 > 10 µM | UACC-257 > 10 µM | HOP-92 2.47 µM | SK-OV-3 > 10 µM | HOP-62 > 10 µM | RPMI-8226 > 10 µM | NCI-H23 > 10 µM | NCI-H460 > 10 µM | SNB-75 2.49 µM
